Results from publication PMC4501006, “Preliminary Characterization and In Vivo Studies of Structurally Identical ^18F- and ^125I-Labeled Benzyloxybenzenes for PET/SPECT Imaging of β-Amyloid Plaques” (Scientific Reports, 2015).

How the values were obtained:
[1] = In vivo biodistribution in normal ICR mice; details: i.v.
Aβ plaques = Aβ plaques (Homo sapiens, UniProt P05067); assay: In vitro autoradiography on AD human brain sections; format: binding
Description: Figure 5 In vitro autoradiography of [^125I]7a (a–d), [^18F]7a (e–h), [^125I]12a (i–l) and [^18F]12a (m–p).

[2] = Partition coefficient determination (log D); format: physicochemical
Description: An ideal Aβ imaging probe would combine a high binding affinity to Aβ plaques and excellent pharmacokinetics with high initial brain uptake and rapid washout from normal brain regions. Thus, the partition coefficients of these four radiolabeled ligands were determined to estimate their ability to penetrate the BBB.

Chain of Aβ plaques (P05067 672-711 limits assumed): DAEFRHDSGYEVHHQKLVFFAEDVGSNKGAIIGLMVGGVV

brain2 min/brain60 min ratio [1]: 1.8
Biodistribution of radioactivity, blood ([1]; 2 min): 5.99 ± 0.16 % injected dose per gram
Biodistribution of radioactivity, bone ([1]; 2 min): 2.53 ± 0.43 % injected dose per gram
Biodistribution of radioactivity, brain ([1]; 2 min): > 5 % injected dose per gram
Biodistribution of radioactivity, heart ([1]; 2 min): 9.32 ± 0.27 % injected dose per gram
Biodistribution of radioactivity, intestine ([1]; 2 min): 6.38 ± 1.04 % injected dose per organ
Biodistribution of radioactivity, kidney ([1]; 2 min): 12.70 ± 0.69 % injected dose per gram
Biodistribution of radioactivity, liver ([1]; 2 min): 17.83 ± 1.41 % injected dose per gram
Biodistribution of radioactivity, lung ([1]; 2 min): 9.34 ± 0.45 % injected dose per gram
Biodistribution of radioactivity, muscle ([1]; 2 min): 5.03 ± 0.63 % injected dose per gram
Biodistribution of radioactivity, pancreas ([1]; 2 min): 8.18 ± 0.79 % injected dose per gram
Biodistribution of radioactivity, spleen ([1]; 2 min): 5.92 ± 1.30 % injected dose per gram
Biodistribution of radioactivity, stomach ([1]; 2 min): 1.55 ± 0.11 % injected dose per organ
Biodistribution of radioactivity, brain ([1]; 2 min, listed as [18F]7a): 6.14 ± 0.52 % injected dose per gram
Biodistribution of radioactivity, blood ([1]; 10 min): 4.29 ± 0.14 % injected dose per gram
Biodistribution of radioactivity, bone ([1]; 10 min): 1.55 ± 0.50 % injected dose per gram
Biodistribution of radioactivity, brain ([1]; 10 min): 4.78 ± 0.11 % injected dose per gram
Biodistribution of radioactivity, heart ([1]; 10 min): 4.03 ± 0.34 % injected dose per gram
Biodistribution of radioactivity, intestine ([1]; 10 min): 5.38 ± 0.33 % injected dose per organ
Biodistribution of radioactivity, kidney ([1]; 10 min): 7.69 ± 1.15 % injected dose per gram
Biodistribution of radioactivity, liver ([1]; 10 min): 6.07 ± 0.27 % injected dose per gram
Biodistribution of radioactivity, lung ([1]; 10 min): 4.63 ± 0.35 % injected dose per gram
Biodistribution of radioactivity, muscle ([1]; 10 min): 3.46 ± 0.19 % injected dose per gram
Biodistribution of radioactivity, pancreas ([1]; 10 min): 3.96 ± 0.15 % injected dose per gram
Biodistribution of radioactivity, spleen ([1]; 10 min): 3.33 ± 0.20 % injected dose per gram
Biodistribution of radioactivity, stomach ([1]; 10 min): 1.24 ± 0.13 % injected dose per organ
Biodistribution of radioactivity, blood ([1]; 30 min): 4.36 ± 0.20 % injected dose per gram
Biodistribution of radioactivity, bone ([1]; 30 min): 2.70 ± 0.48 % injected dose per gram
Biodistribution of radioactivity, brain ([1]; 30 min): 3.85 ± 0.24 % injected dose per gram
Biodistribution of radioactivity, heart ([1]; 30 min): 4.20 ± 0.52 % injected dose per gram
Biodistribution of radioactivity, intestine ([1]; 30 min): 5.95 ± 0.89 % injected dose per organ
Biodistribution of radioactivity, kidney ([1]; 30 min): 6.12 ± 0.79 % injected dose per gram
Biodistribution of radioactivity, liver ([1]; 30 min): 4.31 ± 0.32 % injected dose per gram
Biodistribution of radioactivity, lung ([1]; 30 min): 4.21 ± 0.18 % injected dose per gram
Biodistribution of radioactivity, muscle ([1]; 30 min): 3.82 ± 0.40 % injected dose per gram
Biodistribution of radioactivity, pancreas ([1]; 30 min): 3.62 ± 0.30 % injected dose per gram
Biodistribution of radioactivity, spleen ([1]; 30 min): 3.38 ± 0.23 % injected dose per gram
Biodistribution of radioactivity, stomach ([1]; 30 min): 1.82 ± 0.48 % injected dose per organ
Biodistribution of radioactivity, blood ([1]; 60 min): 4.97 ± 0.12 % injected dose per gram
Biodistribution of radioactivity, bone ([1]; 60 min): 4.16 ± 0.59 % injected dose per gram
Biodistribution of radioactivity, brain ([1]; 60 min): 3.48 % injected dose per gram
Biodistribution of radioactivity, heart ([1]; 60 min): 4.26 ± 0.13 % injected dose per gram
Biodistribution of radioactivity, intestine ([1]; 60 min): 8.13 ± 1.01 % injected dose per organ
Biodistribution of radioactivity, kidney ([1]; 60 min): 4.77 ± 0.52 % injected dose per gram
Biodistribution of radioactivity, liver ([1]; 60 min): 3.84 ± 0.21 % injected dose per gram
Biodistribution of radioactivity, lung ([1]; 60 min): 4.32 ± 0.17 % injected dose per gram
Biodistribution of radioactivity, muscle ([1]; 60 min): 4.31 ± 0.38 % injected dose per gram
Biodistribution of radioactivity, pancreas ([1]; 60 min): 2.89 ± 0.37 % injected dose per gram
Biodistribution of radioactivity, spleen ([1]; 60 min): 3.28 ± 0.29 % injected dose per gram
Biodistribution of radioactivity, stomach ([1]; 60 min): 1.58 ± 0.18 % injected dose per organ
Biodistribution of radioactivity, brain ([1]; 60 min, listed as [18F]7a): 3.48 ± 0.12 % injected dose per gram
in vitro autoradiography, plaque labeling (Aβ plaques): specifically label Aβ deposits
logD [2]: 3.88 ± 0.17
SMILES: [18F]CCOc1ccc(OCc2ccc(I)cc2)cc1 [[^18F]7a]
